Drawing on the NIST ThermoML archive (doi:10.1016/j.fluid.2014.08.014), this text covers refractive index for five molecules.

± gives the expanded uncertainty stated by the source.

The data set can be described thus: refractive index (Na D-line) (dimensionless). The following applies: 293.15 K; 101.33 kPa; Liquid; Standard Abbe refractometry.

Regarding `O` [water], the refractive index (as a rule, the speed of light in vacuum divided by its phase velocity in the sample) is listed as 1.3328 ± 0.0005.

For the molecule `CC(C)(C)O` [2-methylpropan-2-ol], the refractive index stood at 1.3881 ± 0.0005.

As to `CCCCOC(C)=O` [butyl ethanoate], the refractive index is given as 1.3951 ± 0.0005.

For `CC(C)CO` [2-methyl-1-propanol], the refractive index came out at 1.3955 ± 0.0005.

As for `CCO` [ethanol], the refractive index is reported as 1.3616 ± 0.0005.
